Patent US20210323918A1, “COMPOSITIONS AND METHODS FOR SUPPRESSING AND/OR TREATING A GROWTH RELATED DISEASE AND/OR A CLINICAL CONDITION THEREOF” (CK Biotech Inc., priority 2018, published 2021)

The compounds below were run against T1, CXXC5-DVL interaction (Homo sapiens, UniProt O14640) (assay: In vitro CXXC5-DVL binding assay (FITC-tagged PTD-DBMP on DVL PDZ domain)). Conditions: compound 30 μM; fluorescent intensity normalized to DMSO-treated control; read-out: CXXC5-DVL interaction (%).
T1 construct: 5 mg/ml purified DVL PDZ domain was incubated in each well
T1 sequence (O14640 251-323 limits assumed): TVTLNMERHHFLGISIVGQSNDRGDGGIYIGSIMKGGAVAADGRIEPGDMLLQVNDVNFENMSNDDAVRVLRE
Description: Screening for compounds that inhibit the CXXC5-DVL interaction. […] Briefly, 5 mg/ml purified DVL PDZ domain was incubated in each well of a 96-well Maxibinding Immunoplate (SPL) at 4° C. for 16 hours. After the addition of 10 μM FITC-tagged PTD-DBMP to each well, each compound in the chemical library or control (DMSO) was treated to the well at a final concentration of 30 μM. The fluorescence intensity was measured using a Fluorstar Optima microplate reader (BGM Lab Technologies, Ortenberg, Germany). The binding values were calculated as a percent ratio of the fluorescent intensity normalized to the DMSO-treated control.

Row | SMILES | remaining activity at 30 µM [%]
1 | Oc1cc(O)cc(/C=C/c2ccc(O)c(O)c2)c1 [Compound 17] | 7.61
2 | O=C(OCCN1CCOCC1)C1(c2ccccc2)CCCCC1 [Compound 18] | 5.7
3 | CCN(CC)S(=O)(=O)c1ccc(OC)c(Nc2cc(-c3ccccc3)nc(C)n2)c1 [Compound 6] | 7.63
4 | COc1ccc(C2CC(C(F)(F)F)n3ncc(C(=O)O)c3N2)cc1OC (centres unmarked) [Compound 2] | 1.01
5 | COC(=O)C1=C(C)N/C(=C/c2cc(C)n(-c3ccccc3F)c2C)C1=O [Compound 4] | 4.76
6 | CC(N)(Cc1ccc(O)c(O)c1)C(=O)O (centres unmarked) [Compound 14] | 7.65
7 | COc1ccc(C2CC(=O)C3=C(C2)Nc2onc(C)c2C3c2ccc(O)c(O)c2)cc1OC (centres unmarked) [Compound 7] | 0.72
8 | O=c1cc(O)cc(/C=C/c2ccc(O)c(O)c2)o1 [Compound 11] | 1.73
9 | O=C1Nc2ccccc2/C1=C1/Nc2ccccc2/C1=N\O [Compound 12, indirubin-3′-oxime, reference compound] | 7.65
10 | O=c1c(O)c(-c2ccc(O)cc2O)oc2cc(O)cc(O)c12 [Compound 15] | 7.43
11 | Cc1cc(C)c2c(O)nc(SCC(=O)c3ccc(O)c(O)c3)nc2n1 [Compound 3] | 4.01
12 | O=C(O)C1Sc2[nH]c(=O)sc2C2c3cc(Br)cc(Br)c3OC(=O)C12 (centres unmarked) [Compound 5] | 1.19
13 | O=c1c(O)c(-c2cc(O)c(O)c(O)c2)oc2cc(O)cc(O)c12 [Compound 13] | 7.66
14 | COc1ccc(C)cc1/N=N/c1ccc(O)c2nc(/C=N/O)ccc12 [Compound 1] | 7.62
15 | CN1CCc2cc(O)cc3c2[C@H]1Cc1ccc(O)c(O)c1-3 [Compound 9] | 2.5

Same assay, conditions: read-out: CXXC5-DVL interaction (%)

Row | SMILES | remaining activity at 30 µM [%]
16 | NC(Cc1cc(O)c(O)cc1O)C(=O)O (centres unmarked) [Compound 10] | 1.39
17 | CN(C)c1ccc(O)c2c1C[C@H]1C[C@H]3[C@H](N(C)C)C(O)=C(C(N)=O)C(=O)[C@@]3(O)C(O)=C1C2=O [Compound 16] | 4.37
